According to patent US10952436B2, “Microbiocidal quinoline (thio)carboxamide derivatives” (SYNGENTA PARTICIPATIONS AG, priority 2017, dated 2021):

How the values were obtained:
Fusarium culmorum [1] = test: microbe, parasite or virus in culture; format: cell-based; details: read-out: control of Fusarium culmorum
[2] = system: Monographella nivalis (Microdochium nivale); test: Monographella nivalis (Microdochium nivale)/Liquid Culture (Foot Rot Cereals); format: cell-based; details: 200 ppm, liquid culture, compared to untreated control, 4-5 days after application, read-out: control of Monographella nivalis
[3] = system: Botryotinia fuckeliana (Botrytis cinerea); test: Botryotinia fuckeliana (Botrytis cinerea)/Liquid Culture (Gray Mould); format: cell-based; details: 200 ppm, liquid culture, compared to untreated control, 3-4 days after application, read-out: control of Botryotinia fuckeliana
[4] = system: Magnaporthe grisea (Pyricularia oryzae); test: whole plant or invertebrate; format: in vivo; details: foliar, read-out: control of Magnaporthe grisea
[5] = system: Glomerella lagenarium (Colletotrichum lagenarium); test: Glomerella lagenarium (Colletotrichum lagenarium)/Liquid Culture (Anthracnose); format: cell-based; details: Colletotrichum orbiculare; 200 ppm; liquid culture, compared to untreated control, 3-4 days after application; read-out: control of Glomerella lagenarium
Fusarium culmorum [6] = test: whole plant or invertebrate; format: in vivo; details: in Triticum aestivum, read-out: control of Fusarium culmorum
Sclerotinia sclerotiorum = test: Sclerotinia sclerotiorum/Liquid Culture (Cottony Rot); details: read-out: control of Sclerotinia sclerotiorum
Experimental: Mycelia fragments of a newly grown liquid culture of the fungus are directly mixed into nutrient broth (Vogels broth). After placing a (DMSO) solution of test compound into a microtiter plate (96-well format) the nutrient broth containing the fungal material is added. The test plates are incubated at 24° C. and the inhibition of growth is determined photometrically 3-4 days after application.

[7] = system: Magnaporthe grisea (Pyricularia oryzae); test: microbe, parasite or virus in culture; format: cell-based; details: read-out: control of Magnaporthe grisea

CC(C)CC(F)(Cc1ccccc1)C(=O)Nc1cnc2c(F)cccc2c1 (centres unmarked) [Compound E-1, 2-benzyl-2-fluoro-N-(8-fluoro-3-quinolyl)-4-methyl-pentanamide]
inhibition of growth at 200 ppm (Fusarium culmorum [1]): ≥ 80% | inhibition of growth at 200 ppm [2]: ≥ 80% | inhibition of growth at 200 ppm [3]: ≥ 80% | pest or weed control at 200 ppm [4]: ≥ 80% | inhibition of growth at 200 ppm [5]: ≥ 80% | pest or weed control at 200 ppm (Fusarium culmorum [6]): ≥ 80%

C#CCC(C)(Cc1ccccc1)C(=O)Nc1cc2cccc(F)c2nc1C (centres unmarked) [Compound E-2, 2-benzyl-N-(8-fluoro-2-methyl-3-quinolyl)-2-methyl-pent-4-ynamide]
inhibition of growth at 200 ppm (Fusarium culmorum [1]): ≥ 80% | inhibition of growth at 200 ppm [3]: ≥ 80% | pest or weed control at 200 ppm [4]: ≥ 80% | inhibition of growth at 200 ppm [5]: ≥ 80% | pest or weed control at 200 ppm (Fusarium culmorum [6]): ≥ 80%

C=C(Cl)CC(Cc1ccccc1)C(=O)Nc1cnc2c(F)cccc2c1 (centres unmarked) [Compound E-6, 2-benzyl-4-chloro-N-(8-fluoro-3-quinolyl)pent-4-enamide]
inhibition of growth at 200 ppm (Fusarium culmorum [1]): ≥ 80% | inhibition of growth at 200 ppm [2]: ≥ 80% | inhibition of growth at 200 ppm [3]: ≥ 80% | pest or weed control at 200 ppm [4]: ≥ 80% | inhibition of growth at 200 ppm [5]: ≥ 80% | melting point: 166 to 168 °C

Cc1nc2c(F)cccc2cc1NC(=O)C(C)(Cc1cccc(F)c1)CC(F)(F)F (centres unmarked) [Compound E-8, 4,4,4-trifluoro-N-(8-fluoro-2-methyl-3-quinolyl)-2-[(3-fluorophenyl)methyl]-2-methyl-butanamide]
inhibition of growth at 200 ppm (Fusarium culmorum [1]): ≥ 80% | inhibition of growth at 200 ppm [3]: ≥ 80% | pest or weed control at 200 ppm [4]: ≥ 80% | inhibition of growth at 200 ppm [5]: ≥ 80% | pest or weed control at 200 ppm (Fusarium culmorum [6]): ≥ 80% | inhibition of growth at 20 ppm (Sclerotinia sclerotiorum): ≥ 80% | inhibition of growth at 200 ppm [7]: ≥ 80%

CC(Cc1ccc(F)cc1)(CC(F)(F)F)C(=O)Nc1cnc2c(F)cccc2c1 (centres unmarked) [Compound E-18, 4,4,4-trifluoro-2-[(4-fluorophenyl)methyl]-N-(8-fluoro-3-quinolyl)-2-methyl-butanamide]
inhibition of growth at 200 ppm (Fusarium culmorum [1]): ≥ 80% | inhibition of growth at 200 ppm [2]: ≥ 80% | inhibition of growth at 200 ppm [3]: ≥ 80% | pest or weed control at 200 ppm [4]: ≥ 80% | inhibition of growth at 200 ppm [5]: ≥ 80% | inhibition of growth at 20 ppm (Sclerotinia sclerotiorum): ≥ 80% | inhibition of growth at 200 ppm [7]: ≥ 80%

Cc1c(NC(=O)C(Cc2ccccc2)CC(C)C)cnc2c(F)cccc12 (centres unmarked) [Compound E-19, 2-benzyl-N-(8-fluoro-4-methyl-3-quinolyl)-4-methyl-pentanamide]
inhibition of growth at 200 ppm (Fusarium culmorum [1]): ≥ 80% | inhibition of growth at 200 ppm [3]: ≥ 80% | pest or weed control at 200 ppm [4]: ≥ 80% | inhibition of growth at 200 ppm [5]: ≥ 80% | pest or weed control at 200 ppm (Fusarium culmorum [6]): ≥ 80% | inhibition of growth at 20 ppm (Sclerotinia sclerotiorum): ≥ 80% | inhibition of growth at 200 ppm [7]: ≥ 80%

C#CCC(C)(Cc1ccccc1)C(=O)Nc1cnc2c(F)cccc2c1 (centres unmarked) [Compound E-26, 2-benzyl-N-(8-fluoro-3-quinolyl)-2-methyl-pent-4-ynamide]
inhibition of growth at 200 ppm (Fusarium culmorum [1]): ≥ 80% | inhibition of growth at 200 ppm [2]: ≥ 80% | inhibition of growth at 200 ppm [3]: ≥ 80% | pest or weed control at 200 ppm [4]: ≥ 80% | inhibition of growth at 200 ppm [5]: ≥ 80% | melting point: 189 to 191 °C | inhibition of growth at 200 ppm [7]: ≥ 80%

CCCCC(C)(Cc1ccccc1)C(=O)Nc1cnc2c(F)cccc2c1 (centres unmarked) [Compound E-27, 2-benzyl-N-(8-fluoro-3-quinolyl)-2-methyl-hexanamide]
inhibition of growth at 200 ppm (Fusarium culmorum [1]): ≥ 80% | inhibition of growth at 200 ppm [2]: ≥ 80% | inhibition of growth at 200 ppm [3]: ≥ 80% | pest or weed control at 200 ppm [4]: ≥ 80% | melting point: 135 to 137 °C | inhibition of growth at 200 ppm [7]: ≥ 80%

CC#CCC(Cc1ccccc1)C(=O)Nc1cnc2c(F)cccc2c1 (centres unmarked) [Compound E-29, 2-benzyl-N-(8-fluoro-3-quinolyl)hex-4-ynamide]
inhibition of growth at 200 ppm [3]: ≥ 80% | pest or weed control at 200 ppm [4]: ≥ 80% | melting point: 218 to 220 °C | inhibition of growth at 200 ppm [7]: ≥ 80%

CC#CCC(C)(Cc1ccccc1)C(=O)Nc1cnc2c(F)cccc2c1 (centres unmarked) [Compound E-30, 2-benzyl-N-(8-fluoro-3-quinolyl)-2-methyl-hex-4-ynamide]
inhibition of growth at 200 ppm (Fusarium culmorum [1]): ≥ 80% | inhibition of growth at 200 ppm [2]: ≥ 80% | inhibition of growth at 200 ppm [3]: ≥ 80% | pest or weed control at 200 ppm [4]: ≥ 80% | melting point: 136 to 138 °C | inhibition of growth at 200 ppm [7]: ≥ 80%

Cc1nc2c(F)cccc2cc1NC(=O)C(Cc1ccccc1)CC(F)(F)F (centres unmarked) [Compound E-44, 2-benzyl-4,4,4-trifluoro-N-(8-fluoro-2-methyl-3-quinolyl)butanamide]
inhibition of growth at 200 ppm (Fusarium culmorum [1]): ≥ 80% | inhibition of growth at 200 ppm [3]: ≥ 80% | pest or weed control at 200 ppm [4]: ≥ 80% | inhibition of growth at 200 ppm [5]: ≥ 80% | pest or weed control at 200 ppm (Fusarium culmorum [6]): ≥ 80% | inhibition of growth at 200 ppm [7]: ≥ 80%

C=C(C)CC(CC)(Cc1ccccc1)C(=O)Nc1cnc2c(F)cccc2c1 (centres unmarked) [Compound E-46, 2-benzyl-2-ethyl-N-(8-fluoro-3-quinolyl)-4-methyl-pent-4-enamide]
inhibition of growth at 200 ppm (Fusarium culmorum [1]): ≥ 80% | inhibition of growth at 200 ppm [2]: ≥ 80% | inhibition of growth at 200 ppm [3]: ≥ 80% | pest or weed control at 200 ppm [4]: ≥ 80% | inhibition of growth at 200 ppm [5]: ≥ 80% | inhibition of growth at 200 ppm [7]: ≥ 80%

CC(Cc1ccccc1)(CC(F)(F)F)C(=O)Nc1cnc2c(F)cccc2c1 (centres unmarked) [Compound E-80, 2-benzyl-4,4,4-trifluoro-N-(8-fluoro-3-quinolyl)-2-methyl-butanamide]
inhibition of growth at 200 ppm (Fusarium culmorum [1]): ≥ 80% | inhibition of growth at 200 ppm [2]: ≥ 80% | inhibition of growth at 200 ppm [3]: ≥ 80% | pest or weed control at 200 ppm [4]: ≥ 80% | inhibition of growth at 200 ppm [5]: ≥ 80% | pest or weed control at 200 ppm (Fusarium culmorum [6]): ≥ 80% | inhibition of growth at 20 ppm (Sclerotinia sclerotiorum): ≥ 80% | inhibition of growth at 200 ppm [7]: ≥ 80%

C=C(C)CC(Cc1ccccc1)C(=O)Nc1cnc2c(F)cccc2c1C (centres unmarked) [Compound E-93, 2-benzyl-N-(8-fluoro-4-methyl-3-quinolyl)-4-methyl-pent-4-enamide]
inhibition of growth at 200 ppm (Fusarium culmorum [1]): ≥ 80% | inhibition of growth at 200 ppm [2]: ≥ 80% | inhibition of growth at 200 ppm [3]: ≥ 80% | pest or weed control at 200 ppm [4]: ≥ 80% | inhibition of growth at 200 ppm [5]: ≥ 80% | melting point: 116 to 118 °C

C=C(C)C[C@@](C)(Cc1ccccc1)C(=O)Nc1cc2cccc(F)c2nc1C [Compound F-1, (2S)-2-benzyl-N-(8-fluoro-2-methyl-3-quinolyl)-2,4-dimethyl-pent-4-enamide]
inhibition of growth at 200 ppm (Fusarium culmorum [1]): ≥ 80% | inhibition of growth at 200 ppm [3]: ≥ 80% | pest or weed control at 200 ppm [4]: ≥ 80% | inhibition of growth at 200 ppm [5]: ≥ 80% | pest or weed control at 200 ppm (Fusarium culmorum [6]): ≥ 80% | inhibition of growth at 20 ppm (Sclerotinia sclerotiorum): ≥ 80% | inhibition of growth at 200 ppm [7]: ≥ 80%

C=C(C)C[C@](C)(Cc1ccccc1)C(=O)Nc1cc2cccc(F)c2nc1C [Compound F-2, (2R)-2-benzyl-N-(8-fluoro-2-methyl-3-quinolyl)-2,4-dimethyl-pent-4-enamide]
inhibition of growth at 200 ppm (Fusarium culmorum [1]): ≥ 80% | inhibition of growth at 200 ppm [3]: ≥ 80% | pest or weed control at 200 ppm [4]: ≥ 80% | inhibition of growth at 200 ppm [5]: ≥ 80% | pest or weed control at 200 ppm (Fusarium culmorum [6]): ≥ 80% | inhibition of growth at 20 ppm (Sclerotinia sclerotiorum): ≥ 80% | inhibition of growth at 200 ppm [7]: ≥ 80%

Cc1c(NC(=O)[C@@](C)(Cc2ccccc2)CC(C)C)cnc2c(F)cccc12 [Compound F-4, (2R)-2-benzyl-N-(8-fluoro-4-methyl-3-quinolyl)-2,4-dimethyl-pentanamide]
inhibition of growth at 200 ppm (Fusarium culmorum [1]): ≥ 80% | inhibition of growth at 200 ppm [3]: ≥ 80% | pest or weed control at 200 ppm [4]: ≥ 80% | inhibition of growth at 200 ppm [5]: ≥ 80% | pest or weed control at 200 ppm (Fusarium culmorum [6]): ≥ 80%

C=C(C)C[C@](C)(Cc1ccccc1)C(=O)Nc1cnc2c(F)cccc2c1C [Compound F-6, (2R)-2-benzyl-N-(8-fluoro-4-methyl-3-quinolyl)-2,4-dimethyl-pent-4-enamide]
inhibition of growth at 200 ppm (Fusarium culmorum [1]): ≥ 80% | inhibition of growth at 200 ppm [2]: ≥ 80% | inhibition of growth at 200 ppm [3]: ≥ 80% | pest or weed control at 200 ppm [4]: ≥ 80% | inhibition of growth at 200 ppm [5]: ≥ 80% | pest or weed control at 200 ppm (Fusarium culmorum [6]): ≥ 80% | inhibition of growth at 20 ppm (Sclerotinia sclerotiorum): ≥ 80% | inhibition of growth at 200 ppm [7]: ≥ 80%

Cc1c(NC(=O)[C@](C)(Cc2ccccc2)CC(F)(F)F)cnc2c(F)cccc12 [Compound F-13, (2R)-2-benzyl-4,4,4-trifluoro-N-(8-fluoro-4-methyl-3-quinolyl)-2-methyl-butanamide]
inhibition of growth at 200 ppm (Fusarium culmorum [1]): ≥ 80% | inhibition of growth at 200 ppm [2]: ≥ 80% | inhibition of growth at 200 ppm [3]: ≥ 80% | inhibition of growth at 200 ppm [5]: ≥ 80% | pest or weed control at 200 ppm (Fusarium culmorum [6]): ≥ 80% | inhibition of growth at 20 ppm (Sclerotinia sclerotiorum): ≥ 80% | melting point: 71 to 73 °C | inhibition of growth at 200 ppm [7]: ≥ 80%

Cc1c(NC(=O)[C@@](C)(Cc2ccccc2)CC(F)(F)F)cnc2c(F)cccc12 [Compound F-14, (2S)-2-benzyl-4,4,4-trifluoro-N-(8-fluoro-4-methyl-3-quinolyl)-2-methyl-butanamide]
inhibition of growth at 200 ppm (Fusarium culmorum [1]): ≥ 80% | inhibition of growth at 200 ppm [2]: ≥ 80% | inhibition of growth at 200 ppm [3]: ≥ 80% | inhibition of growth at 200 ppm [5]: ≥ 80% | pest or weed control at 200 ppm (Fusarium culmorum [6]): ≥ 80% | inhibition of growth at 20 ppm (Sclerotinia sclerotiorum): ≥ 80% | melting point: 74 to 76 °C | inhibition of growth at 200 ppm [7]: ≥ 80%

C=C(C)C[C@@](C)(Cc1ccccc1)C(=O)Nc1cnc2c(F)cccc2c1 [Compound F-21, (2S)-2-benzyl-N-(8-fluoro-3-quinolyl)-2,4-dimethyl-pent-4-enamide]
inhibition of growth at 200 ppm (Fusarium culmorum [1]): ≥ 80% | inhibition of growth at 200 ppm [2]: ≥ 80% | inhibition of growth at 200 ppm [3]: ≥ 80% | pest or weed control at 200 ppm [4]: ≥ 80% | inhibition of growth at 200 ppm [5]: ≥ 80% | pest or weed control at 200 ppm (Fusarium culmorum [6]): ≥ 80% | melting point: 132 to 135 °C
